The values that follow come from ChEMBL document CHEMBL1128401, “Structure-activity relationships in the 8-amino-6,7,8,9-tetrahydro-3H-benz[e]indole ring system. 1. Effects of substituents in the aromatic system on serotonin and dopamine receptor subtypes” (J Med Chem, 1995).

The source made the active and inactive calls. The rule behind the calls is not given here.

The subject of series [1] is Rattus norvegicus. Kind of series: compound was tested in vivo for 5-HTP accumulation in limbic system against reserpine-pretreated rats; inactive at the highest dose tested. In kind it is functional.
Series [2] concerns the target T1, D(2) dopamine receptor (Rattus norvegicus, UniProt P61169). The series can be described thus: Binding affinity against Dopamine receptor D2 from CHO-K1 cells, using [3H]U-86,170 as the radioligand. In kind it is cell-based.
Series [3] concerns Rattus norvegicus. Kind of series: compound was tested in vivo for 5-HTP accumulation in corpus striatum against reserpine-pretreated rats, activity expressed as ED50; inactive at the highest dose tested. It counts as functional.
Series [4] relates to Rattus norvegicus. The series can be described thus: The compound was tested in vivo for DOPA accumulation in hemispheres (cortex) against reserpine-pretreated rats;I= inactive at the highest dose tested. In kind it is functional, organism-based.
The subject of series [5] is Rattus norvegicus. Kind of series: compound was tested in vivo for 5-HTP accumulation in hemispheres (cortex) against reserpine-pretreated rats; inactive at the highest dose tested. It counts as functional.
Series [6] addresses T2, D(3) dopamine receptor (Rattus norvegicus, UniProt P19020). Kind of series: Binding affinity against Dopamine receptor D3 from CHO-K1 cells, using [3H]spiperone as the radioligand. The following applies: read-out: Ki. In kind it is cell-based.
The target in series [7] is T3, 5-hydroxytryptamine receptor 1A (Rattus norvegicus, UniProt P19327).
T3 sequence (P19327 whole entry): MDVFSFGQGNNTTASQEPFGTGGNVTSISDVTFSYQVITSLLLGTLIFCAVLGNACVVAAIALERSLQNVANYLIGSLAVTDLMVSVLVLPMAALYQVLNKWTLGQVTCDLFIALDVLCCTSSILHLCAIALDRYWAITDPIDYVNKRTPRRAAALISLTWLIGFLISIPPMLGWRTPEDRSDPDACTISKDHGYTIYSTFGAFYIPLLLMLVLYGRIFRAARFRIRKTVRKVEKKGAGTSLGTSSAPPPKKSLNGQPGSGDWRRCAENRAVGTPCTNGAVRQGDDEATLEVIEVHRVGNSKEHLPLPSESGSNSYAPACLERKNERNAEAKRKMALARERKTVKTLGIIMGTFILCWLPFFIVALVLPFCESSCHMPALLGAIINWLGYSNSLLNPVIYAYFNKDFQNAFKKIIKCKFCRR
Kind of series: Binding affinity against 5-hydroxytryptamine 1A receptor from CHO-K1 cells, using [3H]8-OH-DPAT as the radioligand. It counts as cell-based.

Series [8] deals with 5-hydroxytryptamine receptor 1D (Homo sapiens, UniProt P28221). Kind of series: Binding affinity against 5-hydroxytryptamine 1D receptor alpha expressed in CHO-K1 cells, using [3H]-5-HT as the radioligand. In kind it is cell-based. Conditions: read-out: Ki.
In series [9] the target is 5-hydroxytryptamine receptor 1B (Homo sapiens, UniProt P28222). Kind of series: Binding affinity against 5-hydroxytryptamine 1D receptor beta expressed in CHO-K1 cells, using [3H]5-HT as the radioligand. It counts as cell-based. Conditions: read-out: Ki.
The target in series [10] is T2, D(3) dopamine receptor. The series can be described thus: Compound was tested for binding affinity against Dopamine receptor D3 expressed in CHO-K1 cells, using [3H]spiperone as the radioligand.;I = inactive (less than 50% inhibition at 1 uM). In kind it is cell-based.
The target in series [11] is T1, D(2) dopamine receptor. The series can be described thus: Binding affinity against Dopamine receptor D2 expressed in CHO-K1 cells, using [3H]U-86170 as the radioligand. In kind it is cell-based.
The test system of series [12] is Rattus norvegicus. The series can be described thus: compound was tested in vivo for DOPA accumulation in corpus striatum against reserpine-pretreated rats. In kind it is functional.
Series [13] relates to Rattus norvegicus. The series can be described thus: In vivo for 5-HTP accumulation in limbic system against reserpine-pretreated rats. It counts as functional.
Series [14] can be described thus: Bioavailability in rat plasma following iv/po dose. In kind it is ADME, organism-based.
Series [15] has as its system Rattus norvegicus. Kind of series: Bioavailability in male Sprague-Dawley rats, after the iv administration at a dose of 54.0(pmol/g/h). In kind it is ADME, organism-based. Conditions: in vivo.
Series [16] can be described thus: tmax in hours at a dose of 10.0(pmol/g/h). In kind it is ADME.
Series [17] deals with Rattus norvegicus. The series can be described thus: Bioavailability in male Sprague-Dawley rats, after the po administration at a dose of 10.0(pmol/g/h). In kind it is ADME, organism-based. Conditions: in vivo.
Series [18] relates to Rattus norvegicus. Kind of series: In vivo for 5-HTP accumulation in hemispheres (cortex) against reserpine-pretreated rats. It counts as functional.
The nature of series [19]: tmax in hours at a iv dose of 54.0(pmol/g/h). It counts as ADME, organism-based. Conditions: in vivo.
Series [20] concerns Rattus norvegicus. Kind of series: In vivo for DOPA accumulation in corpus striatum against reserpine-pretreated rats. It counts as functional.
The test system of series [21] is Rattus norvegicus. Kind of series: In vivo for DOPA accumulation in limbic system against reserpine-pretreated rats. In kind it is functional.
For series [22], the system named is Rattus norvegicus. Kind of series: In vivo for 5-HTP accumulation in corpus striatum against reserpine-pretreated rats. In kind it is functional.
In series [23] the test system is Rattus norvegicus. Kind of series: The Compound was tested in vivo for DOPA accumulation in hemispheres (cortex) against reserpine-pretreated rats;I= inactive at the highest dose (12.5). It counts as functional, organism-based.
The test system of series [24] is Rattus norvegicus. Kind of series: The Compound was tested in vivo for DOPA accumulation in hemispheres (cortex) against reserpine-pretreated rats; P=significant partial reduction only at the highest dose tested (12.5). It counts as functional, organism-based.
The test system of series [25] is Rattus norvegicus. Kind of series: Bioavailability in male Sprague-Dawley rats, after the po administration at a dose of 40.0(pmol/g/h). In kind it is ADME, organism-based. The following applies: in vivo.
Series [26] deals with Rattus norvegicus. The series can be described thus: Bioavailability in male Sprague-Dawley rats, after the iv administration at a dose of 5.0(pmol/g/h). In kind it is ADME, organism-based. Conditions: in vivo.
In series [27] the target is T2, D(3) dopamine receptor. The series can be described thus: Binding affinity against Dopamine receptor D3 expressed in CHO-K1 cells, using [3H]spiperone as the radioligand. In kind it is cell-based.
Series [28] can be described thus: tmax in hours at a po dose of 40.0(pmol/g/h). In kind it is ADME, organism-based. Conditions: in vivo.
Series [29] in a line: tmax in hours at a iv dose of 5.0(pmol/g/h). In kind it is ADME, organism-based. Conditions: in vivo.
A short description of series [30]: Rat bioavailability after iv/po administration, expressed as %. The following applies: in vivo. In kind it is ADME, organism-based.

T2 sequence (P19020 whole entry): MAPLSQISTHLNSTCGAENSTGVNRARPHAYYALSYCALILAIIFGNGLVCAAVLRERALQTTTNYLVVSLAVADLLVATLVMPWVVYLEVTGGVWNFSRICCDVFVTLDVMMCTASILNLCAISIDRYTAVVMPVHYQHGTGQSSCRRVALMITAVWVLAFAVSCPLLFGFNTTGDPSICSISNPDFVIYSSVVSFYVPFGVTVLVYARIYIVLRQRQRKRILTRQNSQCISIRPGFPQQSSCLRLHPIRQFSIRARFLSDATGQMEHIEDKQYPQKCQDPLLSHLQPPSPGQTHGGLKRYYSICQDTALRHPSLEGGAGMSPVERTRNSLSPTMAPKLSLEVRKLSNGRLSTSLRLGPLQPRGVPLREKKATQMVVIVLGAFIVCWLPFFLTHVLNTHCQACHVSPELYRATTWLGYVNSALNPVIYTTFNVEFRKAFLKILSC
Sequence of 5-hydroxytryptamine receptor 1B (P28222 whole entry): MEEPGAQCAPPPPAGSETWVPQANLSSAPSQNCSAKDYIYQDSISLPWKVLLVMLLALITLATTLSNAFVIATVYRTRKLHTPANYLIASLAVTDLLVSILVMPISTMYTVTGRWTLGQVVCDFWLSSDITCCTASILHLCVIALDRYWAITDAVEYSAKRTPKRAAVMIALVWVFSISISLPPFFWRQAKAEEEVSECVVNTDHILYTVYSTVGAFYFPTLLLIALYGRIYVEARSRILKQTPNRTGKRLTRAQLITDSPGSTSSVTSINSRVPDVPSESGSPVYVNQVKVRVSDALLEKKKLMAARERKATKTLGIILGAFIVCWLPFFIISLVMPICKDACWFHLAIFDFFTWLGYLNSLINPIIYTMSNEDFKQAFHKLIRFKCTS
T1 sequence (P61169 whole entry): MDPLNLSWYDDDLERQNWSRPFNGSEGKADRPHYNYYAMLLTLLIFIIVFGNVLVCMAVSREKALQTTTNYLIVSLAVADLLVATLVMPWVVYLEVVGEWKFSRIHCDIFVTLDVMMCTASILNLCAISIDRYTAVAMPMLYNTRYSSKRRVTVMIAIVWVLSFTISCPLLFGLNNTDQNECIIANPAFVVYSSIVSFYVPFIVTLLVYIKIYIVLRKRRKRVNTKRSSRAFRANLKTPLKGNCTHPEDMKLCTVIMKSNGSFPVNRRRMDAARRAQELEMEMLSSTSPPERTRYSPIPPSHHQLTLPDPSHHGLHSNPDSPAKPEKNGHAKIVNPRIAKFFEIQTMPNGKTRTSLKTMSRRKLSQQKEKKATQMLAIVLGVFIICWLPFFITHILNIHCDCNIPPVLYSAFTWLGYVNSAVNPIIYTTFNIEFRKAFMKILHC
Sequence of 5-hydroxytryptamine receptor 1D (P28221 whole entry): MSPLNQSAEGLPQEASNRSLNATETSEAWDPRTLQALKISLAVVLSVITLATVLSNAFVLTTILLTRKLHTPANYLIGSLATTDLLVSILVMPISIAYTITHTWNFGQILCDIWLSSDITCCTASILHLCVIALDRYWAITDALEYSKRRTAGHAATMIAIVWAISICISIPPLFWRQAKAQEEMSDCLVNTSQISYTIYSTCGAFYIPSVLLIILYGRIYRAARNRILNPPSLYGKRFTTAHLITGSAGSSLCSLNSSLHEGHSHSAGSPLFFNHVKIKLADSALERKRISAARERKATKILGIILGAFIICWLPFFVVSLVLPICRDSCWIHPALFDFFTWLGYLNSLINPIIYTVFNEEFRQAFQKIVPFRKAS

A word on the ED50: it is the dose that gives a 50% effect, or the effect in half of the subjects. By Ki is commonly meant the dissociation constant of the complex between target and ligand, obtained from inhibition or displacement. For `CCCN(CCC)[C@H]1CCc2cc(F)c3[nH]cc(C=O)c3c2C1`, the figures for the ED50 in the series on Rattus norvegicus [1], in the series with Rattus norvegicus [3] and in the series on Rattus norvegicus [5] were 0.23 µmol/kg, 0.17 µmol/kg and 0.32 µmol/kg, respectively. Also, the Ki came to 199 nM on D(2) dopamine receptor [2]; 78 nM at D(3) dopamine receptor [6]; 0.8 nM in series [7]; 34 nM in [8]; 179 nM in series [9]. For the same molecule, the ED50 entry with Rattus norvegicus [4] is “inactive”.

Consider `CCCN(CCC)C1CCc2ccc3[nH]cc(S(C)(=O)=O)c3c2C1` (stereo unspecified), for which the Ki result is “Not Active” on D(3) dopamine receptor [10]; 11 nM in [7]; 52 nM in series [8]; 373 nM in series [9]; 265 nM on D(2) dopamine receptor [11].

With `CCCN(CCC)C1CCc2ccc3[nH]cc(C=O)c3c2C1` (stereo unspecified), in the series on Rattus norvegicus [4], the ED50 result was “inactive”. Moreover, the inhibition constant Ki at D(3) dopamine receptor [6] worked out at 70 nM; in series [8], 173 nM; in series [9], 364 nM. For the same molecule, the ED50 in the series on Rattus norvegicus [12] was 3.34 µmol/kg.

The bioavailability is dose-corrected exposure relative to a reference, in per cent. A higher bioavailability goes with good availability. The term Tmax denotes the time from dosing to the highest level. For the molecule `CCCN(CCC)C1CCc2cc(F)c3[nH]cc(C#N)c3c2C1` (stereo unspecified), the median effective dose (ED50) with Rattus norvegicus [13] came out at 0.52 µmol/kg; in the series with Rattus norvegicus [18], 0.46 µmol/kg; with Rattus norvegicus [20], 2.1 µmol/kg; with Rattus norvegicus [21] it was 0.55 µmol/kg; with Rattus norvegicus [22], 0.43 µmol/kg. Further, the bioavailability in [14] is 8.1%. The AUC in the series on Rattus norvegicus [15] stood at 238 pM ml-1; in the series with Rattus norvegicus [17], 48 pM ml-1. Further, the Ki at D(2) dopamine receptor [2] was 72 nM; on D(3) dopamine receptor [6], 63 nM; in [7] it was 2.3 nM; in [8], 8.6 nM; in series [9], 121 nM. The time of peak concentration (Tmax) stood at 33 h in series [16] and 2 h in series [19]. For the same molecule, in the series with Rattus norvegicus [23], the ED50 result is “inactive”.

Turning to `CCCN(CCC)C1CCc2ccc3[nH]cc(C#N)c3c2C1` (stereo unspecified), in the series with Rattus norvegicus [24], the median effective dose (ED50) entry was “Weak activity”. For the same molecule, the values for the AUC in the series on Rattus norvegicus [25] and with Rattus norvegicus [26] were 4849 pM ml-1 and 1115 pM ml-1, respectively. In addition, the Ki in [7] was found to be 0.4 nM; in [8] it was 7.5 nM; on D(3) dopamine receptor [27], 43 nM; in series [9] it was 38 nM; at D(2) dopamine receptor [11] it was 24 nM. In series [28], this molecule registered a T max of 135 h. In addition, in series [29], the time to peak (Tmax) was found to be 2 h. Further, in [30], the bioavailability turned out to be 54%.
